Experimental data: patent US20060104985A1, “Dengue virus infection inhibitor” (priority 2002, published 2006)

Legend:
[1] = test system: binding of dengue virus to K562 cells; assay: Inhibitory activity on binding of dengue virus to K562 cell surface, flow cytometer (Example 3); assay type: cell-based
Experimental: After K562 cells were cultured until confluent, the cells were dispensed into a microtube to be 4×10^5 cells/0.1 ml. After this microtube was centrifuged at 4° C. for 3 minutes at 3,500 rpm, the obtained cell pellet was washed once with 1 ml of PBS containing 0.1% BSA. After it was further centrifuged at 4° C. for 3 minutes at 3,500 rpm, a dengue virus stock solution was diluted with PBS containing 0.1% BSA to the concentrations of 5,000 units/ml, 2,000 units/ml, 1,000 units/ml, and 500 units/ml, respectively. Then, 100 μl of each of the solutions was added to the K562 cells, and reacted at 4° C. for 1 hour.
Incidentally, as virus(−), a solution to which only PBS containing 0.1% BSA was added in the same amount was used.
After the reaction, the cells were washed 3 times with 1 ml of chilled PBS(−), 100 μl of a solution of human anti-flavivirus antiserum (lot No. 1), which had been diluted to 200-fold, was added, respectively, as a primary antibody, well suspended, and reacted at 4° C. for 30 minutes. […]
K562 cells (1×10^5 cells) were seeded on a 24-well culture plate, and the total volume was made up to 1 ml with RPMI medium. […] The solution was transferred to a microtube, and virus binding was evaluated by the method described in (1).

[2] = test system: binding of dengue virus to K562 cells; assay: Inhibition of binding of dengue virus to K562 cell surface, flow cytometer (Example 2); assay type: cell-based
Experimental: After K562 cells were cultured until confluent, the cells were dispensed into a microtube to be 2×10^5 cells/0.1 ml. After this microtube was centrifuged at 4° C. for 2 minutes at 10,000 rpm, the obtained cell pellet was washed once with 1 ml of PBS containing 0.1% BSA. After a dengue virus solution (2,000 units/ml) and PG (0, 100, 200 or 500 μM) or GA1 (500 μM), which is a reference glycolipid, were preincubated in PBS containing 0.1% BSA at 4° C. for 1 hour, 100 μl of each of the solutions was added to K562 cells, and the virus was allowed to bind to the cell at 4° C. for 1 hour. Incidentally, as virus(−), only PBS containing 0.1% BSA was added in the same amount. After the reaction, the cells were washed 3 times with 1 ml of chilled PBS(−), 100 μl of a solution of human anti-flavivirus antiserum (lot No. 1), which had been diluted to 200-fold, was added, respectively, as a primary antibody, well suspended, and reacted at 4° C. for 30 minutes. The cells were washed 3 times with 1 ml of chilled PBS(−), and 100 μl of a solution of a FITC-labeled goat anti-human IgG (Zymed), which had been diluted to 50-fold, was added, respectively, as a secondary antibody and shielded from light. Then, they were reacted at 4° C. for 30 minutes. […]

[3] = test system: dengue virus (D2Th7 strain); assay: TLC/virus-binding assay of glycolipids; conditions: HPLC fractions of the neutral glycolipid fraction of mosquito-derived C6/36 cells
Experimental: The neutral glycolipid fractions I to IV obtained in the foregoing (c) (10 μl each), and as a reference standard, LacCer (1 μl), CTH (2 μl), paragloboside (PG: Galβ1-4GlcNAcβ1-3Galβ1-4Glcβ1-1′Cer) (2 μl), GA1 (Galβ1-3GalNAcβ1-4Galβ1-4Glcβ1-1′Cer) (2 μl), globoside (GalNAcβ1-3Galα1-4Galβ1-4Glcβ1-1′Cer) (2 μl) were spotted on TLC plates (Polygram Sil G), developed with acetone once, and developed with CHCl3/MeOH/12 mM MgCl2 (50/40/10, by vol). Then, orcinol reagent was sprayed and the plate was heated at 110° C., whereby color reaction was developed. With regard to the neutral glycolipid fractions I to IV, TLC/virus-binding assay was carried out by the method described above.
The neutral glycolipid fraction II-2 (10 μl) obtained by the foregoing method described in (1), PI (10 μl), PG (2 μl) and globoside (1 μl) were spotted on a TLC plate (Polygram Sil G), developed with acetone once, and developed with CHCl3/MeOH/12 mM MgCl2 (50/40/10, by vol). […]
Subsequently, 2.5 ml of human anti-flavivirus antiserum diluted to 1,000-fold with Solution A was added and reacted at room temperature for 1 hour. […] Finally, the plates were reacted with 2.5 ml of a color-developing substrate solution (0.1 M citrate buffer pH 6.0 (2.5 ml), 0.11 M 4-chloro-1-naphthol in CH3CN (50 μl), 0.06 M DEPDA in CH3CN (50 μl), 30% H2O2 (5 μl)), and bound virus particles were detected. […]

[4] = test system: dengue virus infection; conditions: rhesus monkeys; cited from earlier work
[5] = test system: infection of K562 cells with dengue virus; assay: Virus infection test of K562 cells with oligosaccharide-pretreated dengue virus, antigen positive cells by flow cytometer; assay type: cell-based; conditions: virus pretreated with oligosaccharide at 28° C. for 30 minutes, infection at 37° C. for 2 hours
Experimental: In any cases, 1 mM stock solution was prepared with sterile PBS(−). This solution was appropriately diluted and used for the infection inhibition test.
Dilution was carried out with serum-free RPMI medium (SF-RPMI) containing 0.2% BSA so as to give a final virus concentration of 3×105 FFU (focus forming unit)/sample, and the solution was stirred well and placed on ice.
To 630 μl (virus volume per 1 sample) of the dengue virus solution prepared in (2) described above, an equivalent amount of a diluted solution containing an oligosaccharide was added, stirred well, and incubated at 28° C. for 30 minutes. This solution was used as a pretreated virus solution.
In addition, as a negative control, the one obtained by mixing PBS(−) with the virus solution was used.
After K562 cells were washed once with SF-RPMI, the cells were prepared at 1×10^6 cells/ml with 0.1% BSA-SF-RPMI. This cell suspension was dispensed in 100 μl aliquots into tubes. Thereto was added the pretreated virus solution, stirred gently, and infection of cells was carried out at 37° C. for 2 hours. During this time, the solution in the tube was gently stirred every 20 minutes. After the solution was centrifuged at 3,400 rpm for 3 minutes, the virus solution was removed, and the cells were washed 3 times with 0.1% BSA-SF-RPMI. To the cell pellet, 2 ml of RPMI medium containing 2% serum (2% FCS-RPMI) was added, and suspended. […]

## Galβ1-3GalNAcβ1-4Galβ1-4Glcβ1-1′Cer [GA1, reference compound]
[1]; negative control, GA1 500 μM
  effect on binding of dengue virus to the cell surface (FIG. 6): not affected at all
[2]; 500 μM, preincubated with virus 2,000 units/ml at 4° C. for 1 hour
  inhibition of binding of dengue virus to K562 cells (FIG. 5): could not inhibit

## Galβ1-4GlcNAcβ1-3Manβ1-4Glcβ1-1Cer [Fraction 15]
[3]
  binding of purified glycolipids to dengue virus on TLC plate (FIG. 8): binds to the virus very strongly

## NC(=O)c1ncn([C@@H]2O[C@H](CO)[C@@H](O)[C@H]2O)n1 [ribavirin]
[4]
  adverse effects induced: anemia or thrombocytosis
  preventive effect against dengue virus infection: did not show a preventive effect

## Galβ1-4GlcNAcβ1-3Galβ1-4Glcβ1-1′Cer [paragloboside]
[1]; paragloboside 100, 200 or 500 μM, virus 2,000 units/ml
  inhibition of the binding of dengue virus to K562 cells (FIG. 6): inhibition of the binding of dengue virus to K562 cells is caused depending on the concentration of paragloboside
[2]; PG 100, 200 or 500 μM preincubated with virus 2,000 units/ml at 4° C. for 1 hour
  inhibition of binding of dengue virus to K562 cells (FIG. 5): inhibited depending on the concentration of PG

## GlcNAcβ1-3Manβ1-4Glcβ1-1Cer [Fraction 13]
[3]
  binding of purified glycolipids to dengue virus on TLC plate (FIG. 8): binds to the virus very strongly

## CC(=O)N[C@H]1[C@H](O[C@H]2[C@@H](O)[C@@H](CO)O[C@@H](O[C@H]3[C@H](O)[C@@H](O)C(O)O[C@@H]3CO)[C@@H]2O)O[C@H](CO)[C@@H](O[C@@H]2O[C@H](CO)[C@H](O)[C@H](O)[C@H]2O)[C@@H]1O (stereo partly drawn) [paragloboside saccharide chain, Galβ1-4GlcNAcβ1-3Galβ1-4Glc]
[5]
  inhibition of infection of K562 cells with dengue virus (FIG. 9): inhibited the infection of K562 cells with dengue virus depending on the concentration
